# From patent publication US5091169A, “Dipyridoxyl phosphate NMRI contrast agent compositions” (priority 1989, dated 1992)
# Where two headings read alike, the source gives them in different places.
# Tests used:
# selected body organs [1] = test system: selected body organs
# Experimental: Each of four rabbits was injected intravenously with one of the following amounts of the solution obtained in Example 7: 0.01 mmoles/kg, 0.05 mmoles/kg, 0.10 mmoles/kg and 0.20 mmoles/kg. The rabbits were sacrificed 30 min post injection, and the proton relaxation values of selected body organs were measured with NMR, in vitro at 10 MHz.
# selected body organs [2] = conditions: for T1, Bile / T1, Heart / T1, Liver / T1, Renal cortex / T1, Renal medulla: 0.01 mmol/kg i.v., 10 MHz
# Experimental: Each of seven rabbits was injected intravenously with 0.01 mmol/kg of the solution obtained in Example 7. The rabbits were sacrificed at 0.25, 0.50, 1.0, 2.0, 4, 6 and 24 hours post-injection, and the proton relation values of selected body organs were measured with NMR, in vitro, at 10 MHz.
# [3] = 0.10 mmol/kg i.v., 30 min, 10 MHz
# [4] = 0.20 mmol/kg i.v., 30 min, 10 MHz
smiles,measurement,setting,value
"Cc1ncc(COP(=O)(O)O)c(CN(CCN(CC(=O)[O-])Cc2c(COP(=O)(O)O)cnc(C)c2O)CC(=O)[O-])c1O.[Mn+2] [Mn(DPDP), manganese chelate complex of N,N'-bis-(pyridoxal-5-phosphate)ethylenediamine-N,N'-diacetic acid]","T2, Brain",selected body organs [1]; [3],90 ms
same,"T2, Fat",selected body organs [1]; [3],115 ms
same,"T2, Heart",selected body organs [1]; [3],51 ms
same,"T2, Large Int.",selected body organs [1]; [3],57 ms
same,"T2, Liver",selected body organs [1]; [3],23 ms
same,"T2, Lung",selected body organs [1]; [3],61 ms
same,"T2, Renal Cort.",selected body organs [1]; [3],55 ms
same,"T2, Renal Med.",selected body organs [1]; [3],48 ms
same,"T2, Skel. Musc.",selected body organs [1]; [3],31 ms
same,"T2, Small Int.",selected body organs [1]; [3],46 ms
same,"T2, Stom.",selected body organs [1]; [3],52 ms
same,"T2, Urine",selected body organs [1]; [3],75 ms
same,"T1, Blood",selected body organs [1]; [4],411 ms
same,"T1, Brain",selected body organs [1]; [4],352 ms
same,"T1, Fat",selected body organs [1]; [4],192 ms
same,"T1, Heart",selected body organs [1]; [4],205 ms
same,"T1, Large Int.",selected body organs [1]; [4],256 ms
same,"T1, Liver",selected body organs [1]; [4],68 ms
same,"T1, Lung",selected body organs [1]; [4],376 ms
same,"T1, Renal Cort.",selected body organs [1]; [4],143 ms
same,"T1, Renal Med.",selected body organs [1]; [4],127 ms
same,"T1, Skel. Musc.",selected body organs [1]; [4],232 ms
same,"T1, Small Int.",selected body organs [1]; [4],131 ms
same,"T1, Stom.",selected body organs [1]; [4],271 ms
same,"T2, Brain",selected body organs [1]; [4],66 ms
same,"T2, Heart",selected body organs [1]; [4],47 ms
same,"T2, Large Int.",selected body organs [1]; [4],74 ms
same,"T2, Liver",selected body organs [1]; [4],25 ms
same,"T2, Lung",selected body organs [1]; [4],63 ms
same,"T2, Renal Cort.",selected body organs [1]; [4],53 ms
same,"T2, Renal Med.",selected body organs [1]; [4],60 ms
same,"T2, Skel. Musc.",selected body organs [1]; [4],31 ms
same,"T2, Small Int.",selected body organs [1]; [4],46 ms
same,"T2, Stom.",selected body organs [1]; [4],53 ms
same,heart uptake vs dose,selected body organs [1]; dose range studied,the heart continues to uptake Mn(DPDP) through the dose range studied
same,uptake in organs,"selected body organs [1]; heart, liver and kidneys, i.v.","rapid uptake of the Mn(DPDP) in the heart, liver and kidneys"
same,brain uptake,selected body organs [1]; higher doses,uptake by the brain was observed at higher doses
same,"saturating dose, liver and kidneys","selected body organs [1]; i.v., 30 min post injection",0.10 mmol/kg
same,"T1, Bile",selected body organs [2]; 0.25 hr,160 ms
same,"T1, Heart",selected body organs [2]; 0.25 hr,231 ms
same,"T1, Liver",selected body organs [2]; 0.25 hr,68 ms
same,"T1, Renal cortex",selected body organs [2]; 0.25 hr,202 ms
same,"T1, Renal medulla",selected body organs [2]; 0.25 hr,192 ms
same,"T1, Bile",selected body organs [2]; 0.50 hr,46 ms
same,"T1, Heart",selected body organs [2]; 0.50 hr,352 ms
same,"T1, Liver",selected body organs [2]; 0.50 hr,76 ms
same,"T1, Renal cortex",selected body organs [2]; 0.50 hr,191 ms
same,"T1, Renal medulla",selected body organs [2]; 0.50 hr,231 ms
same,"T1, Bile",selected body organs [2]; 1.0 hr,25 ms
same,"T1, Heart",selected body organs [2]; 1.0 hr,381 ms
same,"T1, Liver",selected body organs [2]; 1.0 hr,48 ms
same,"T1, Renal cortex",selected body organs [2]; 1.0 hr,229 ms
same,"T1, Renal medulla",selected body organs [2]; 1.0 hr,236 ms
same,"T1, Bile",selected body organs [2]; 2 hr,21 ms
same,"T1, Heart",selected body organs [2]; 2 hr,507 ms
same,"T1, Liver",selected body organs [2]; 2 hr,48 ms
same,"T1, Renal cortex",selected body organs [2]; 2 hr,192 ms
same,"T1, Renal medulla",selected body organs [2]; 2 hr,310 ms
same,"T1, Bile",selected body organs [2]; 4 hr,< 1 ms
same,"T1, Heart",selected body organs [2]; 4 hr,522 ms
same,"T1, Liver",selected body organs [2]; 4 hr,145 ms
same,"T1, Renal cortex",selected body organs [2]; 4 hr,210 ms
same,"T1, Renal medulla",selected body organs [2]; 4 hr,340 ms
same,"T1, Bile",selected body organs [2]; 6 hr,14 ms
same,"T1, Heart",selected body organs [2]; 6 hr,663 ms
same,"T1, Liver",selected body organs [2]; 6 hr,209 ms
same,"T1, Renal cortex",selected body organs [2]; 6 hr,239 ms
same,"T1, Renal medulla",selected body organs [2]; 6 hr,375 ms
same,"T1, Bile",selected body organs [2]; 24 hr,107 ms
same,"T1, Heart",selected body organs [2]; 24 hr,660 ms
same,"T1, Liver",selected body organs [2]; 24 hr,315 ms
same,"T1, Renal cortex",selected body organs [2]; 24 hr,328 ms
same,"T1, Renal medulla",selected body organs [2]; 24 hr,563 ms
same,uptake and clearance,"selected body organs [2]; liver, renal cortex, renal medulla and heart","rapid uptake and clearance of Mn(DPDP) in the liver, renal cortex, renal medulla and heart"
same,clearance time through renal and hepatobiliary systems,"selected body organs [2]; post-injection, i.v.",6 to 8 h
same,collection in extravascular space,blood-brain barrier; defect in blood-brain barrier,large amounts of the complex of Mn(DPDP) collect in the extravascular space
same,observation of blood-brain barrier defects by NMRI,blood-brain barrier; not observable without Mn(DPDP) as contrast agent,such defects were observed by NMRI tomography
